Source: patent publication US6750228B1, “Aromatic sulfone hydroxamic acid metalloprotease inhibitor” (priority 1997, dated 2004)
Like-named read-outs stand apart in the source and are kept apart here.

Tests used:
Test in all cases: biochemical
MMP-1 = target: T1, MMP-1 (Homo sapiens, UniProt P03956); details: read-out: MMP-1 IC50
T1 construct: made in house; host or cells: transfected HT-1080 cells (provided by Dr. Harold Welgus, Washington University)
T1 sequence (P03956 100-469): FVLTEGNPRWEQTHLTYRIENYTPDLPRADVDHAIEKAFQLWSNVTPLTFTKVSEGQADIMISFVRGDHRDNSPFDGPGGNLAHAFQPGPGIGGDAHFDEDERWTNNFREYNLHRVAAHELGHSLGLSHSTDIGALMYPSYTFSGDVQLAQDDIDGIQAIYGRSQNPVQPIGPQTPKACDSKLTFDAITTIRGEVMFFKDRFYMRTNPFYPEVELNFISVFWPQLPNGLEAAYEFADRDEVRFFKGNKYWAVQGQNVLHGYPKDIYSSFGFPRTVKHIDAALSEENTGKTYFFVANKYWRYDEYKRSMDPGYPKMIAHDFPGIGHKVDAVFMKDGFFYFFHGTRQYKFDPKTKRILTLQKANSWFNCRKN
In short: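 Substrate MCA-PLGL-Dpa-AR-NH2 at 4 μM final; pH 7.5 Tris/NaCl/CaCl2 buffer with 0.05% polyethyleneglycol lauryl ether, 1% DMSO, room temperature. MMP-1 was expressed in transfected HT-1080 cells and APMA-activated.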

MMP-13 = target: T2, MMP-13 (Homo sapiens, UniProt P45452); details: read-out: MMP-13 IC50
T2 construct: made in house; host or cells: baculovirus / insect cells
In short: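 APMA- or trypsin-activated enzymes were preincubated with inhibitor for 5 min at room temperature, then the fluorogenic substrate MCA-Pro-Leu-Gly-Leu-Dpa-Ala-Arg-NH2 was added to a final 4 μM.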

MMP-2 = target: T3, MMP-2 (Homo sapiens, UniProt P08253); details: read-out: MMP-2 IC50
T3 construct: made in house; provided by Dr. Gregory Goldberg, Washington University
T3 sequence (P08253 110-660): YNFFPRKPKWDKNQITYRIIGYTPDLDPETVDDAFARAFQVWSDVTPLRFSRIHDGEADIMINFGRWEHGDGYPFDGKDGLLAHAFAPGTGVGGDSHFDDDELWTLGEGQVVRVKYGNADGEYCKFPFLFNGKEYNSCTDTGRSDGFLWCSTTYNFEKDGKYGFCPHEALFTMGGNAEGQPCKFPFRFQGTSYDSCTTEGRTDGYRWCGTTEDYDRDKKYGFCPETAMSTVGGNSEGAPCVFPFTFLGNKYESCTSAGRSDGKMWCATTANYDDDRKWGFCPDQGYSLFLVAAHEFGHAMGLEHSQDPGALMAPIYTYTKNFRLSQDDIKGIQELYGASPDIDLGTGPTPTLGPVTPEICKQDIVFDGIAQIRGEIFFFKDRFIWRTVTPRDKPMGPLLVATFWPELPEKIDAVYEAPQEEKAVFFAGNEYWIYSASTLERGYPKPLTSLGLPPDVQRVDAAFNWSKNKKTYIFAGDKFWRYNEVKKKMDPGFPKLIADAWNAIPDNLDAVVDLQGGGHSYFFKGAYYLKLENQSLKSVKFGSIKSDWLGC
In short: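 Assay buffer 100 mM Tris-HCl, 100 mM NaCl, 10 mM CaCl2, pH 7.5. Activated MMP + inhibitor, 5 min RT; then methoxycoumarin peptide substrate, 4 μM final. Readout fluorescence; IC50 calculated.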

[1] = recombinant human MMP-1, MCA peptide substrate 4 μM, pH 7.5, room temperature
[2] = recombinant human MMP-13, MCA peptide substrate 4 μM, pH 7.5, room temperature
[3] = recombinant human MMP-2, MCA peptide substrate 4 μM, pH 7.5, room temperature

Structure (SMILES) | IC50 (MMP-1; [1]) [µM] | IC50 (MMP-13; [2]) [nM] | IC50 (MMP-2; [3]) [nM] | IC50 (MMP-1) [µM] | IC50 (MMP-13) [nM] | IC50 (MMP-2) [nM]
O=C(NO)C1(S(=O)(=O)c2ccc(N3CCC(OCc4cccc(Cl)c4)CC3)cc2)CCOCC1 [Example 573] | > 10 | 11.4 | 235 | – | – | –
O=C(NCc1ccccc1)OC1CCN(c2ccc(S(=O)(=O)C3(C(=O)NO)CCOCC3)cc2)CC1 [Example 520] | > 10 | 22.5 | 250 | – | – | –
CN(C)CCN(C)CCCCC(=O)N1CCC(C(=O)NO)(S(=O)(=O)c2ccc(Oc3ccc(C(F)(F)F)cc3)cc2)CC1 [Example 338] | > 10 | 1.9 | 0.2 | – | – | –
C#CCN1CCC(C(=O)NO)(S(=O)(=O)c2ccc(S(=O)(=O)c3ccccc3)cc2)CC1 [Example 457] | > 10 | 1800 | 2700 | – | – | –
O=C(NO)C1(S(=O)(=O)c2ccc(N3CCC(Oc4ccccc4C(F)(F)F)CC3)cc2)CCOCC1 [Example 568] | > 10 | 120 | 4600 | – | – | –
O=C(NO)C1(S(=O)(=O)c2ccc(N3CCC(OCc4ccc(OC(F)(F)F)cc4)CC3)cc2)CCN(C2CC2)CC1 [Example 418] | > 10 | 7 | 1400 | – | – | –
CN1CCN(CC(=O)N2CCC(C(=O)NO)(S(=O)(=O)c3ccc(Oc4ccc(C(F)(F)F)cc4)cc3)CC2)CC1 [Example 324] | > 10 | 0.7 | 0.4 | – | – | –
O=C(Nc1ccncc1)C1CCN(c2ccc(S(=O)(=O)C3(C(=O)NO)CCOCC3)cc2)CC1 [Example 62] | > 10 | 14 | 690 | – | – | –
CC1CC(C)CN(C(=O)C2CCN(c3ccc(S(=O)(=O)C4(C(=O)NO)CCN(C(=O)CN5CCC(C(N)=O)CC5)CC4)cc3)CC2)C1 (stereo not drawn) [Example 300] | > 10 | 37.3 | > 10000 | – | – | –
C=CCC(=O)C1CCN(c2ccc(S(=O)(=O)C3(C(=O)NO)CCOCC3)cc2)CC1 [Example 798] | > 10 | 20 | 210 | – | – | –
COCc1ccc(COC2CCN(c3ccc(S(=O)(=O)C4(C(=O)NO)CCOCC4)cc3)CC2)cc1 [Example 522] | > 10 | 2.4 | 94 | – | – | –
O=C(NO)C1(S(=O)(=O)c2ccc(N3CCCC(COCc4ccc(F)cc4)C3)cc2)CCOCC1 (stereo not drawn) [Example 505] | > 10 | 14 | 72 | – | – | –
CCOC(=O)CN1CCN(c2ccc(S(=O)(=O)C3(C(=O)NO)CCOCC3)cc2)CC1 [Example 621] | > 10 | 120 | 1500 | – | – | –
O=C(C1CCN(c2ccc(S(=O)(=O)C3(C(=O)NO)CCOCC3)cc2)CC1)N1CCN(c2cccc(Cl)c2)CC1 [Example 43] | – | – | – | > 10 | 17.9 | 5000
O=C(c1ccc(OC(F)(F)F)cc1)N1CCN(c2ccc(S(=O)(=O)C3(C(=O)NO)CCOCC3)cc2)CC1 [Example 595] | > 10 | 270 | 425 | – | – | –
O=C(NO)C1(S(=O)(=O)c2ccc(N3CCC(Cc4ccccc4)CC3)cc2)CCOCC1 [Example 720] | > 10 | 4.5 | 36.9 | – | – | –
CC1CC(C)CN(C(=O)C2CCN(c3ccc(S(=O)(=O)C4(C(=O)NO)CCN(C(=O)CN5CCC(C(=O)O)CC5)CC4)cc3)CC2)C1 (stereo not drawn) [Example 315] | > 10 | 420 | > 10000 | – | – | –
CCOc1cccc(OC2CCN(c3ccc(S(=O)(=O)C4(C(=O)NO)CCOCC4)cc3)CC2)c1 [Example 640] | > 10 | 4.2 | 15.8 | – | – | –
O=C(CNCc1ccncc1)N1CCC(C(=O)NO)(S(=O)(=O)c2ccc(Oc3ccc(C(F)(F)F)cc3)cc2)CC1 [Example 325] | > 10 | 0.9 | 0.2 | – | – | –
CCCCc1ccc(OC2CCN(c3ccc(S(=O)(=O)C4(C(=O)NO)CCOCC4)cc3)CC2)cc1 [Example 642] | > 10 | 2.2 | 1.1 | – | – | –

Structure (SMILES) | IC50 (MMP-1; [1]) [µM] | IC50 (MMP-13; [2]) [nM] | IC50 (MMP-2; [3]) [nM] | IC50 (MMP-1) [µM] | IC50 (MMP-13) [nM] | IC50 (MMP-2) [nM]
O=C(NO)C1(S(=O)(=O)c2ccc(N3CCC(OCc4ccc(Cl)c(Cl)c4)CC3)cc2)CCOCC1 [Example 176] | > 10 | 4 | 250 | – | – | –
O=C(c1ccc(Cl)c(Cl)c1)C1CCN(c2ccc(S(=O)(=O)C3(C(=O)NO)CCOCC3)cc2)CC1 [Example 846] | > 10 | 4.5 | 186 | – | – | –
O=C(CNCc1cccnc1)N1CCC(C(=O)NO)(S(=O)(=O)c2ccc(Oc3ccc(C(F)(F)F)cc3)cc2)CC1 [Example 316] | > 10 | 0.4 | 0.2 | – | – | –
O=C(c1ccc(F)cc1)C1CCN(c2ccc(S(=O)(=O)C3(C(=O)NO)CCOCC3)cc2)CC1 [Example 654] | > 10 | 3.2 | 35 | – | – | –
O=C(NO)C1(S(=O)(=O)c2ccc(N3CCC(OCc4ccccc4F)CC3)cc2)CCOCC1 [Example 576] | > 10 | 8.8 | 78 | – | – | –
CC(C)COCc1ccc(COC2CCN(c3ccc(S(=O)(=O)C4(C(=O)NO)CCOCC4)cc3)CC2)cc1 [Example 555] | > 10 | 3.7 | 220 | – | – | –
CC(C)N1CCC(C(=O)NO)(S(=O)(=O)c2ccc(N3CCC(SCc4ccc(OC(F)(F)F)cc4)CC3)cc2)CC1 [Example 462] | > 10 | 2.9 | 80 | – | – | –
O=C(Nc1ccc(F)cc1)C1CCN(c2ccc(S(=O)(=O)C3(C(=O)NO)CCOCC3)cc2)CC1 [Example 75] | > 10 | 11.5 | 500 | – | – | –
O=C(NO)C1(S(=O)(=O)c2ccc(N3CCC(Oc4cccc(C(F)(F)F)c4)CC3)cc2)CCOCC1 [Example 620] | > 10 | 27.8 | 225 | – | – | –
O=C(c1ccccc1)N1CCC(C(=O)NO)(S(=O)(=O)c2ccc(Oc3ccc(OC(F)(F)F)cc3)cc2)CC1 [Example 91] | > 10 | 0.3 | < 0.1 | – | – | –
CC1CC(C)CN(C(=O)C2CCN(c3ccc(S(=O)(=O)C4(C(=O)NO)CCN(C(=O)CN5CCCC5CO)CC4)cc3)CC2)C1 (stereo not drawn) [Example 297] | > 10 | 34.9 | > 10000 | – | – | –
CCC(CC)COCc1ccc(COC2CCN(c3ccc(S(=O)(=O)C4(C(=O)NO)CCOCC4)cc3)CC2)cc1 [Example 602] | > 10 | 70 | 3000 | – | – | –
O=C(Nc1ccc(OC(F)(F)F)cc1)C1CCN(c2ccc(S(=O)(=O)C3(C(=O)NO)CCOCC3)cc2)CC1 [Example 73] | > 10 | 15.4 | 2000 | – | – | –
O=C(NO)C1(S(=O)(=O)c2ccc(N3CCCCC3CCOCc3ccc(F)cc3)cc2)CCOCC1 (stereo not drawn) [Example 510] | > 10 | 7700 | > 10000 | – | – | –
O=C(NO)C1(S(=O)(=O)c2ccc(N3CCC(Oc4ccc(C(F)(F)F)cc4)CC3)cc2)CCOCC1 [Example 567] | > 10 | 5 | 87.7 | – | – | –
O=C(NO)C1(S(=O)(=O)c2ccc(N3CCC(OCc4ccncc4)CC3)cc2)CCOCC1 [Example 577] | > 10 | 107 | 2200 | – | – | –
O=C(NO)C1(S(=O)(=O)c2ccc(OC3CCC(OCc4cccc(Cl)c4)C3)cc2)CCOCC1 (stereo not drawn) [Example 668] | > 10 | 2 | 25.8 | – | – | –
COc1cc(OC)cc(OC2CCN(c3ccc(S(=O)(=O)C4(C(=O)NO)CCOCC4)cc3)CC2)c1 [Example 639] | 9.4 | 1.5 | 1.5 | – | – | –
COc1ccc(COC2CCC(Oc3ccc(S(=O)(=O)C4(C(=O)NO)CCOCC4)cc3)C2)cc1 (stereo not drawn) [Example 648] | > 10 | 25.8 | 110 | – | – | –
Cc1ccccc1N1CCN(c2ccc(S(=O)(=O)C3(C(=O)NO)CCOCC3)cc2)CC1 [Example 536] | > 10 | 7.7 | 88 | – | – | –
